PubChem BioAssay (NCI)
Several values for one entry are separate records, joined by “and”; a condition that tells them apart may be missing. Equal entries are not always repeated.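 Protocol summary: plate cells (96-well), add compound at 5 concentrations, incubate 48 h, interpolate endpoints linearly. GI50 is the concentration that inhibits growth by half. The concentration for full growth arrest is given as TGI.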 Where a SMILES comes first, the peptide text is derived from it. The star is where a group is joined. Trt = c1ccc(C(c2ccccc2)(c2ccccc2)*)cc1; Cbz = O=C(OCc1ccccc1)*

Experiments:
Assay in all cases: growth of human tumour cells (NCI), 48 h
RXF 393 renal = system: RXF 393 renal
OVCAR-8 ovarian = system: OVCAR-8 ovarian
A549 NSCLC = system: A549 NSCLC
HOP-92 NSCLC = system: HOP-92 NSCLC
MALME-3M melanoma = system: MALME-3M melanoma
UO-31 renal = system: UO-31 renal
RPMI-8226 leukemia = system: RPMI-8226 leukemia
SN12C renal = system: SN12C renal
MDA-MB-435 = system: MDA-MB-435
UACC-257 melanoma = system: UACC-257 melanoma

SMILES	GI50 (RXF 393 renal)	TGI (RXF 393 renal)	GI50 (OVCAR-8 ovarian)	TGI (OVCAR-8 ovarian)	GI50 (A549 NSCLC)	TGI (A549 NSCLC) [µM]	GI50 (HOP-92 NSCLC)	TGI (HOP-92 NSCLC)	GI50 (MALME-3M melanoma)	TGI (MALME-3M melanoma)	GI50 (UO-31 renal)	TGI (UO-31 renal)	GI50 (RPMI-8226 leukemia)	TGI (RPMI-8226 leukemia) [µM]	GI50 (SN12C renal)	TGI (SN12C renal) [µM]	GI50 (MDA-MB-435)	TGI (MDA-MB-435)	GI50 (UACC-257 melanoma)	TGI (UACC-257 melanoma)
Nc1nc(N)c2c(n1)NC(c1sc(Cl)nc1Cl)CC(c1ccc3c(c1)OCO3)=N2 (stereo not drawn)	1.4 µM	6.61 µM	4.86 µM	46.9 µM	6.47 µM	> 100	4.25 µM	23.8 µM	14.3 µM	29.1 µM	4.52 µM	24.5 µM	4.66 µM	25	6.55 µM	22.3	0.353 µM	11.6 µM	14.6 µM	41.1 µM
Cc1ccccc1NC(=O)Cc1csc(N=Nc2c(O)[nH]c3ccccc23)n1	–	69.5 µM	–	43.1 µM	–	> 100	–	> 100 µM	–	> 100 µM	–	> 100 µM	–	> 100	–	> 100	–	> 1 µM	–	> 100 µM
CC(C)NC(=O)OCc1c(COC(=O)NC(C)C)c(-c2cc[n+](COC(=O)C3CCCCC3)cc2)n2c1CCC2	–	> 100 µM	–	> 100 µM	–	> 100	–	> 100 µM	–	> 100 µM	–	> 100 µM	–	> 100	–	> 100	–	> 100 µM	–	> 100 µM
CC(N1CCOCC1)C(O)(c1ccccc1)c1ccccn1 (stereo not drawn)	–	> 100 µM	–	> 100 µM	–	> 100	–	> 100 µM	–	> 100 µM	–	> 100 µM	–	> 100	–	> 100	–	> 100 µM	–	> 100 µM
O=Cc1ccc(N2CCN(c3ccc(C=O)cc3)CC2)cc1	67.2 µM	> 100 µM	> 100 µM	> 100 µM	40.1 µM	> 100	> 100 µM	> 100 µM	0.565 µM	> 100 µM	> 100 µM	> 100 µM	> 100 µM	> 100	> 100 µM	> 100	> 100 µM	> 100 µM	> 100 µM	> 100 µM
O=S(=O)(O)SCCNCCCCCC1CCCCC1	–	38 µM	–	33.1 µM	–	23	–	39.9 µM	–	36.2 µM	–	29.8 µM	–	42.1	–	11.3	–	18.5 µM	–	19.5 µM
Cc1cc(Nc2nc(-c3ccncc3)nc3ccccc23)n[nH]1	0.91 µM	9.29 µM	11 µM	> 100 µM	3.59 µM	> 100	4.39 µM	> 100 µM	> 100 µM	> 100 µM	1.23 µM	> 100 µM	> 100 µM	> 100	4.55 µM	> 100	12.1 µM	> 100 µM	48 µM	> 100 µM
O=C(/C=C/c1cccc2ccccc12)Nc1ncc(Cc2ccccc2)s1	0.436 µM	1.66 µM	1.55 µM	> 100 µM	1.32 µM	> 66.3	0.371 µM	4.73 µM	0.627 µM	> 100 µM	1.39 µM	3.98 µM	1.09 µM	> 100	1.16 µM	> 100	0.247 µM	0.725 µM	4.97 µM	> 100 µM
O=C1C=C(N2CCN(CCOCCO)CC2)C(=O)c2c(O)ccc(O)c21	–	28.8 µM	–	17.9 µM	–	11.4	–	20.7 µM	–	2.91 µM	–	22.6 µM	–	> 100	–	14.8	–	3.33 µM	–	3.11 µM
O=C1/C(=C\c2ccccc2)C2OCC=C3CN4CCC56c7ccccc7N1C5C2C3CC46 (stereo not drawn)	35.8 µM	> 100 µM	85.8 µM	> 100 µM	> 100 µM	> 100	6.27 µM	86.8 µM	4.67 µM	17.9 µM	4.04 µM	> 100 µM	5.54 µM	> 100	26.2 µM	> 100	3.59 µM	> 100 µM	2.16 µM	4.11 µM
COC(=O)C(CSC(c1ccccc1)(c1ccccc1)c1ccccc1)NC(=O)C(CC(N)=O)NC(=O)OCc1ccccc1 (stereo not drawn) (Cbz-Asn-Cys(Trt)-OMe; configuration not given here)	3.17 µM	13.5 µM	3.16 µM	17 µM	4.38 µM	51.7	2.64 µM	14.9 µM	2.21 µM	12.1 µM	8.88 µM	21.2 µM	2.29 µM	5.93	3.54 µM	15	2.13 µM	5.2 µM	8.92 µM	21.7 µM
COc1cccc2c1cc1c3c(cc4c(c32)OCO4)C(=O)N1	2.04 µM	5.5 µM	2.28 µM	6.01 µM	5.27 µM	> 100	1.71 µM	6.98 µM	6.5 µM	> 100 µM	3.47 µM	28.9 µM	5.29 µM	> 100	2.87 µM	19.6	10.9 µM	> 100 µM	27.3 µM	> 100 µM
O=C(C=C=Nc1ccccc1)C(=O)N=C=Cc1ccccc1	–	0.497 µM	3.84 µM	14.4 µM	6.74 µM	22.9	5.57 µM	20.1 µM	1.54 µM	5.33 µM	1.63 µM	3.82 µM	0.534 µM	2.29	4.71 µM	19.4	2.33 µM	8 µM	2.38 µM	5.56 µM
CN(C(=O)CNC(=O)/C=C/c1cccc(Cl)c1)C1CCS(=O)(=O)CC1	6.47 µM	40.7 µM	> 100 µM	> 100 µM	> 100 µM	> 100	> 100 µM	> 100 µM	3.45 µM	> 100 µM	47 µM	> 100 µM	14.8 µM	> 100	2.99 µM	> 100	2.1 µM	> 100 µM	> 100 µM	> 100 µM
Cc1ccc(S(=NS(=O)(=O)c2ccc(C)cc2)c2ccc(C)cc2)cc1	–	> 100 µM	–	> 100 µM	–	> 100	–	> 100 µM	–	> 100 µM	–	> 100 µM	–	> 100	–	> 100	–	> 100 µM	–	> 100 µM
Cc1c(Cl)c(C)c(Cc2c(C)c(Cl)c(C)c(Cl)c2O)c(O)c1Cl	2 µM	6.89 µM	3.73 µM	21.6 µM	4.07 µM	18.6	1.16 µM	4.74 µM	2.33 µM	5.97 µM	3.09 µM	11.6 µM	1.18 µM	6.66	2.46 µM	11.8	3.13 µM	11.1 µM	3.52 µM	14.9 µM
CCN(CC)Cc1cc(Nc2c3ccccc3nc3cc(Cl)ccc23)ccc1O	1.28 µM	2.58 µM	1.18 µM	3.83 µM	1.36 µM	4.26	1.41 µM	3.13 µM	1.94 µM	3.58 µM	1.34 µM	2.64 µM	2.32 µM	6.27	1.05 µM	2.67	1.65 µM	3.34 µM	1.9 µM	3.41 µM
O=C(/C=C/c1ccc([N+](=O)[O-])cc1)c1cccc(Nc2nc(Nc3ccccc3)nc(Nc3ccccc3)n2)c1	5.99 µM	30.1 µM	14 µM	> 100 µM	25 µM	> 100	0.662 µM	8.5 µM	38.8 µM	> 100 µM	2.18 µM	> 100 µM	1.66 µM	6.31	26.8 µM	> 100	20 µM	> 100 µM	68.7 µM	> 100 µM
CCCCCCCCCCCCCCCCOCC(O)CO (stereo not drawn)	–	35.7 µM	–	35.4 µM	–	44	–	41.9 µM	–	36.1 µM	–	32.4 µM	–	37.4	–	36.3	–	33.4 µM	–	35.7 µM
COc1ccc(C2=Nc3c/c(=C\c4c(O)[nH]c5cc(Cl)ccc45)ccc3=N2)cc1	3.16 µM	12.2 µM	7.68 µM	22.8 µM	10.1 µM	25.4	0.553 µM	9.83 µM	2.87 µM	12.7 µM	10.2 µM	26.7 µM	1.73 µM	4.62	13.9 µM	30	0.26 µM	1.97 µM	11 µM	25.8 µM
COC(=O)/C(=N\Nc1nnc(C)n1N)C(C#N)c1ccccc1 (stereo not drawn)	–	> 100 µM	–	> 100 µM	–	> 100	–	> 100 µM	–	46.5 µM	–	> 100 µM	–	> 100	–	> 66.7	–	32.5 µM	–	> 100 µM
O=C(NOCCO)c1cc(CN2OCCCC2=O)c(F)c(F)c1Nc1ccc(I)cc1F	0.521 µM and 0.336 µM	25.9 µM and > 10 µM	12.6 µM and > 7.77 µM	> 100 µM	0.464 µM and 0.156 µM	> 86.2	0.0223 µM and 0.0177 µM	0.688 µM and 0.436 µM	< 0.01 µM and 0.00185 µM	< 0.01 µM	0.17 µM and 0.164 µM	13.1 µM and > 10 µM	21.7 µM and > 5.14 µM	> 84.4	2.15 µM and 2.17 µM	> 100	< 0.01 µM and 0.00879 µM	77.1 µM and > 10 µM	< 0.01 µM and 0.00204 µM	0.0393 µM and < 0.0128 µM
Oc1ccc(Cl)cc1/C=N\NC(=S)N/N=C/c1cc(Cl)ccc1O	2.03 µM	6.83 µM	1.92 µM	17.7 µM	3.75 µM	> 100	1.92 µM	14.7 µM	2.14 µM	52.7 µM	1.05 µM	15.5 µM	3.45 µM	34.9	3.12 µM	64.7	3.74 µM	> 100 µM	2.13 µM	7.49 µM
CC(/C=N/N=C(N)N)=N\N=C(N)N	> 45.6 µM	734 µM	11.6 µM	> 76 µM and 378 µM	> 52.4 µM	1780	54.4 µM	62.5 µM	> 39.6 µM	> 76.9 µM and 214 µM	11 µM	552 µM	> 42.8 µM	454	–	941	23 µM	452 µM	> 73.7 µM	521 µM
CCCN1CCC=C(c2ccc(Nc3nc(Nc4ccccc4C(N)=O)c4cc[nH]c4n3)c(C)c2)C1	11 µM	> 25 µM	10.1 µM	> 25 µM	1.89 µM	> 25	0.158 µM	2.04 µM	5.35 µM	> 25 µM	2.98 µM	> 25 µM	5.53 µM	> 21.7	> 21.1 µM	> 25	3.15 µM	> 25 µM	2.65 µM	> 25 µM
N#C/C(=C\c1ccc2[nH]ccc2c1)C(=O)c1ccc(O)c(O)c1	–	> 100 µM	–	> 100 µM	–	> 100	–	> 100 µM	–	> 100 µM	–	> 100 µM	–	> 100	–	> 100	–	> 100 µM	–	> 100 µM
COc1ccc(-c2nc(C(=O)c3ccccc3)n(CC(=O)c3ccc(Cl)cc3)c2-c2ccc(OC)cc2)cc1	> 100 µM	> 100 µM	> 100 µM	> 100 µM	> 100 µM	> 100	> 100 µM	> 100 µM	> 100 µM	> 100 µM	> 100 µM	> 100 µM	> 100 µM	> 100	> 100 µM	> 100	> 100 µM	> 100 µM	> 100 µM	> 100 µM
